In patent EP0823908B1, “PYRIDO[2,3-d]PYRIMIDINES FOR INHIBITING PROTEIN TYROSINE KINASE MEDIATED [sequence] PROLIFERATION” (Warner-Lambert Company LLC, priority 1995, dated 1996):
Like-named read-outs stand apart in the source and are kept apart here.

How the values were obtained:
Type in all cases: biochemical
[1] = biological target: T1, Human EGF receptor tyrosine kinase (Homo sapiens, UniProt P00533); test: EGF receptor tyrosine kinase enzyme assay (substrate peptide phosphorylation); conditions: for inhibition at 50 µM: read-out: EGF-FL % Inhibition at 50 µM; for IC50: read-out: EGF-FL IC50
T1 construct: Human EGF receptor tyrosine kinase was isolated from A431 epidermoid carcinoma cells; endogenous in cells; host or cells: A431 epidermoid carcinoma cells
T1 sequence (P00533 25-1210): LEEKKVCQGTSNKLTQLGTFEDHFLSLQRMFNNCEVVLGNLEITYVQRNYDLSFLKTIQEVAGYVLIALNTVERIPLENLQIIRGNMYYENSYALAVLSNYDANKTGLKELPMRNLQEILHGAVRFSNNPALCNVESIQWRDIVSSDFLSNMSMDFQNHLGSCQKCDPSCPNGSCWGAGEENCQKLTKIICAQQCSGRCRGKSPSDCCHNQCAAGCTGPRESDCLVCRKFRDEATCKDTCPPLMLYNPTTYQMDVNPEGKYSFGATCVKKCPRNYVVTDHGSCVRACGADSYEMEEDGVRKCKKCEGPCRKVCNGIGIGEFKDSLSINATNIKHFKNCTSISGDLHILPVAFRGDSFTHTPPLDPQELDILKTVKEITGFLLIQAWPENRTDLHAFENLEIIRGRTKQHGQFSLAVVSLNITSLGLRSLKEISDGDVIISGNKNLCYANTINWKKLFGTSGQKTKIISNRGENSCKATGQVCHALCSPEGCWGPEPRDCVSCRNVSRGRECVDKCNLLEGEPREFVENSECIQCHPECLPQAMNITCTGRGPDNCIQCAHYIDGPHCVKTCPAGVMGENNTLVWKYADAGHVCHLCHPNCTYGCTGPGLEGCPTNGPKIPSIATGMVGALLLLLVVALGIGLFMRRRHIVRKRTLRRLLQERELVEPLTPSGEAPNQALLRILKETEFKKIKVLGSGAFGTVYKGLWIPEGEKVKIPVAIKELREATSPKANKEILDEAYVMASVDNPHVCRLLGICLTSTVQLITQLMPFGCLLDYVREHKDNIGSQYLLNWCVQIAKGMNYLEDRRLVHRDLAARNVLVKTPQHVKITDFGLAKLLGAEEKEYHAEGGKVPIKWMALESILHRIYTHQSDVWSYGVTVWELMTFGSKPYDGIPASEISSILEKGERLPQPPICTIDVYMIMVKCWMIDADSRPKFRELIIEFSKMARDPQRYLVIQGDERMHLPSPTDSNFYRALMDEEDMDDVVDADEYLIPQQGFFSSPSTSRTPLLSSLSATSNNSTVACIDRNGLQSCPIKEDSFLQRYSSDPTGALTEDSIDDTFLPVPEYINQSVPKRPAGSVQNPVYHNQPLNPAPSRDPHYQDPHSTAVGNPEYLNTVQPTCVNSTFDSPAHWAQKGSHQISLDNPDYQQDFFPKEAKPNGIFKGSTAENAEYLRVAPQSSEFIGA
Experimental: Human EGF receptor tyrosine kinase was isolated from A431 epidermoid carcinoma cells by the following methods. Cells were grown in roller bottles in 50% Dulbecco's Modified Eagle medium and 50% HAM F-12 nutrient media (Gibco) containing 10% fetal calf serum. Approximately 10^9 cells were lysed in two volumes of buffer containing 20 mM 2-(4N-[2-hydroxymethyl]-piperazin-1-yl)ethanesulfonic acid, pH 7.4, 5 mM ethylene glycol bis(2-aminoethyl ether) N,N,N',N'-tetraacetic acid, 1% Triton X-100, 10% glycerol, 0.1 mM sodium orthovanadate, 5 mM sodium fluoride, 4 mM pyrophosphate, 4 mM benzamide, 1 mM dithiothreitol, 80 µg/mL aprotinin, 40 µg/mL leupeptin, and 1 mM phenylmethylsulfonyl fluoride. […] Contaminating proteins were washed from the resin with 1 M NaCl in equilibration buffer, and the enzyme was eluted with 0.5 M N-acetyl-1-D-glucosamine in equilibration buffer.
The reaction was terminated by the addition of 2 mL of 75 mM phosphoric acid and passed through a 2.5-cm phosphocellulose filter disc to bind the peptide. The filter was washed 5 times with 75 mM phosphoric acid and placed in a vial along with 5 mL of scintillation fluid (Ready gel Heckman).

C-src kinase = biological target: T2, C-src kinase (Homo sapiens, UniProt P12931); test: C-src kinase assay (poly GluTyr substrate); conditions: for IC50: read-out: C-src TK IC50; for inhibition at 50 µM: read-out: C-src TK % Inhibition at 50 µM
T2 construct: made in house; host or cells: baculovirus infected insect cells
T2 sequence (P12931 whole entry): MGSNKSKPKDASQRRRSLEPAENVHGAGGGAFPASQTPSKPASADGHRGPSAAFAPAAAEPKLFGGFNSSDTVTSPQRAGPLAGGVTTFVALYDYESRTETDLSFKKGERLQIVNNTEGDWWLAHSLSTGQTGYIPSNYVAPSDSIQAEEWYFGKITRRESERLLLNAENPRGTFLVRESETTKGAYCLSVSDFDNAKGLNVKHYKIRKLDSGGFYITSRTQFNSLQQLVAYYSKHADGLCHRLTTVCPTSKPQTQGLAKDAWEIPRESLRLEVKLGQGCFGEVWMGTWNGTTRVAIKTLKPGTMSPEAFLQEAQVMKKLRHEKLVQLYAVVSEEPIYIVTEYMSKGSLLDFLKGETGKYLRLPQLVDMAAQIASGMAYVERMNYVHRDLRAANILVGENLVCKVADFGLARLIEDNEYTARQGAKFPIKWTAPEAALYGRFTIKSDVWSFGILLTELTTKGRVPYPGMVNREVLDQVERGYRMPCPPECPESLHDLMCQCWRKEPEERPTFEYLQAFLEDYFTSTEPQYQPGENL
Experimental: V-src or C-src kinase is purified from baculovirus infected insect cell lysates using an antipeptide monoclonal antibody directed against the N-terminal 2-17 amino acids. The antibody, covalently linked to 0.65-µm latex beads, is added to a suspension of insect cell lysis buffer comprised of 150 mM NaCl, 50 mM Tris pH 7.5, 1 mM DTT, 1% NP-40, 2 mM EGTA, 1 mM sodium vanadate, 1 mM PMSF, 1 µg/mL each of leupeptin, pepstatin, and aprotinin. […] At the end of the lysate incubation, the beads are rinsed 3 times in lysis buffer, resuspended in lysis buffer containing 10% glycerol, and frozen. These latex beads are thawed, rinsed 3 times in assay buffer which is comprised of 40 mM tris pH 7.5, 5 mM MgCl2, and suspended in the same buffer. In a Millipore 96-well plate with a 0.65 µm polyvinylidine membrane bottom are added the reaction components: 10-µL V-src or C-src beads, 10 µL of 2.5 mg/mL poly GluTyr substrate, 5 µM ATP containing 0.2 µCi labeled ^32P-ATP, 5µL DMSO containing inhibitors or as a solvent control, and buffer to make the final volume 125 µL. The reaction is started at room temperature by addition of the ATP and quenched 10 minutes later by the addition of 125 µL of 30% TCA, 0.1 M sodium pyrophosphate for 5 minutes on ice. […] The filters are punched, counted in a liquid scintillation counter, and the data examined for inhibitory activity in comparison to a known inhibitor such as erbstatin.

[2] = biological target: T3, human FGF-1 (flg) receptor tyrosine kinase (Homo sapiens, UniProt P11362); test: FGF receptor tyrosine kinase assay (32P incorporation into glutamate-tyrosine co-polymer); conditions: for inhibition at 50 µM: read-out: FGFr-TK % Inhibition at 50 µM
T3 construct: amplify a fragment of DNA that codes for the intracellular tyrosine kinase domain; made in house; host or cells: SF9 insect cells (baculovirus)
T3 sequence (P11362 478-767 limits assumed): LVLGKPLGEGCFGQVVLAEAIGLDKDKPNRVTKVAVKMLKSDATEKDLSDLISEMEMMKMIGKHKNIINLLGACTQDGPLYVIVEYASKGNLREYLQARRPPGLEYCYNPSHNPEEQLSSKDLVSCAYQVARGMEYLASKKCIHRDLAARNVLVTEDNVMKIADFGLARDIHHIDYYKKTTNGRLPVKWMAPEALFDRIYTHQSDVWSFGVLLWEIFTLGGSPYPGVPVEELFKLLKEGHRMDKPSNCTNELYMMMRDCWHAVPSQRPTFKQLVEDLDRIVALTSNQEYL
Source text: (§1) Full length cDNAs for the mouse PDGF-β and human FGF-1 (flg) receptor tyrosine kinases were obtained from J. Escobedo and prepared as described in J. Biol. Chem., 262:1482-1487 […], and PCR primers were designed to amplify a fragment of DNA that codes for the intracellular tyrosine kinase domain. The fragment was melded into a baculovirus vector, cotransfected with AcMNPV DNA, and the recombinant virus isolated. SF9 insect cells were infected with the virus to overexpress the protein, and the cell lysate was used for the assay. The assay was performed in 96-well plates (100 µL/incubation/well), and conditions were optimized to measure the incorporation of ^32P from γ^32P-ATP into a glutamate-tyrosine co-polymer substrate. Briefly, to each well was added 82.5 µL of incubation buffer containing 25 mM Hepes (pH 7.0), 150 mM NaCl, 0.1% Triton X-100, 0.2 mM PMSF, 0.2 mM Na3VO4, 10 mM MnCl2, and 750 µg/mL of Poly (4:1) glutamate-tyrosine followed by 2.5 µL of inhibitor and 5µL of enzyme lysate (7.5 µg/µL FGF-TK or 6.0 µg/µL PDGF-TK) to initiate the reaction. Following a 10 minute incubation at 25°C, 10 µL of γ^32P-ATP (0.4 µCi plus 50 µM ATP) was added to each well and samples were incubated for an additional 10 minutes at 25°C. The reaction was terminated by the addition of 100 µL of 30% trichloroacetic acid (TCA) containing 20 mM sodium pyrophosphate and precipitation of material onto glass fiber filter mats (Wallac). […] Nonspecific activity was defined as radioactivity retained on the filters following incubation of samples with buffer alone (no enzyme). Specific enzymatic activity was defined as total activity (enzyme plus buffer) minus nonspecific activity.

[3] = biological target: T4, mouse PDGF-β receptor tyrosine kinase (Mus musculus, UniProt P05622); test: PDGF receptor tyrosine kinase assay (32P incorporation into glutamate-tyrosine co-polymer); conditions: for IC50: read-out: PDGFr-TK IC50; for inhibition at 50 µM: read-out: PDGFr-TK % Inhibition at 50 µM
T4 construct: amplify a fragment of DNA that codes for the intracellular tyrosine kinase domain; made in house; host or cells: SF9 insect cells (baculovirus)
T4 sequence (P05622 599-961 limits assumed): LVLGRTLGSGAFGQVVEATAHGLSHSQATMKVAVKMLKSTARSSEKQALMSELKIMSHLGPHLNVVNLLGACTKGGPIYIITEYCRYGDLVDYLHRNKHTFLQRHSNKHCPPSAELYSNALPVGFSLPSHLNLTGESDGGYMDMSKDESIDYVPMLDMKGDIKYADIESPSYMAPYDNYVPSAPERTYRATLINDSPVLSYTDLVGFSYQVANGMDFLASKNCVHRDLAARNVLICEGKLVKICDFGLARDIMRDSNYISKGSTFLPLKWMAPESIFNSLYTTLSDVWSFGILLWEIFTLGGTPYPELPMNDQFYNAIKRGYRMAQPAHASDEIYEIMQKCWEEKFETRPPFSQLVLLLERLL
Source text: as §1

inhibition at 50 µM [1] | IC50 (C-src kinase) | IC50 ([2]; read-out: FGFr-TK IC50) | IC50 [3] | inhibition at 50 µM (C-src kinase) | Compound | further results
88% | 290 nM | 6200 nM | 2560 nM | – | Cc1cccc(C)c1-c1cc2cnc(N)nc2n(C)c1=O [Example 13, 2-Amino-6-(2,6-dimethylphenyl)-8-methyl-pyrido[2,3-d]-pyrimidin-7(8H)-one] | –
65% | 3920 nM | 7650 nM | 1410 nM | – | Cc1ccccc1-c1cc2cnc(N)nc2n(C)c1=O [Example 14, 2-Amino-6-(2-methylphenyl)-8-methyl-pyrido[2,3-d]-pyrimidin-7(8H)-one] | –
77% | 155 nM | – | 980 nM | – | CCn1c(=O)c(-c2c(Cl)cccc2Cl)cc2cnc(N)nc21 [Example 30, 2-Amino-6-(2,6-dichlorophenyl)-8-ethyl-pyrido[2,3-d]-pyrimidin-7(8H)-one] | –
100% | – | 460 nM | 1200 nM | 100% | CCCn1c(=O)c(-c2c(Cl)cccc2Cl)cc2cnc(N)nc21 [Example 31, 2-Amino-6-(2,6-dichlorophenyl)-8-propyl-8H-pyrido[2,3-d]pyrimidin-7-one] | –
100% | – | 737 nM | 875 nM | 33% | CCCCn1c(=O)c(-c2c(Cl)cccc2Cl)cc2cnc(N)nc21 [Example 32, 2-Amino-8-butyl-6-(2,6-dichlorophenyl)-8H-pyrido[2,3-d]pyrimidin-7-one] | –
95% | 890 nM | 426 nM | 1840 nM | – | CC(C)Cn1c(=O)c(-c2c(Cl)cccc2Cl)cc2cnc(N)nc21 [Example 33, 2-Amino-6-(2,6-dichlorophenyl)-8-isobutyl-8H-pyrido[2,3-d]pyrimidin-7-one] | –
70% | – | – | 5980 nM | 36% | Cn1c(=O)c(-c2c(Cl)cccc2Cl)cc2cnc(NCCCN3CCOCC3)nc21 [Example 47, 6-(2,6-Dichlorophenyl)-8-methyl-2-(3-morpholin-4-yl-propylamino)-8H-pyrido[2,3-d]pyrimidin-7-one] | –
– | 1640 nM | 6520 nM | 9380 nM | – | Cn1c(=O)c(-c2c(Cl)cccc2Cl)cc2cnc(NC3CCCCC3)nc21 [Example 60, 2-Cyclohexylamino-6-(2,6-dichlorophenyl)-8-methyl-8H-pyrido[2,3-d]pyrimidin-7-one] | –
– | – | 8600 nM | 26500 nM | 64% | Cn1c(=O)c(-c2c(Cl)cccc2Cl)cc2cnc(NCCCCCC(=O)OC(C)(C)C)nc21 [Example 61, 6-[6-(2,6-Dichlorophenyl)-8-methyl-7-oxo-7,8-dihydro-pyrido[2,3-d]pyrimidin-2-ylamino]-hexanoic acid, tert-butyl ester] | –
– | – | 403 nM | 546 nM | – | COc1ccc(Nc2ncc3cc(-c4c(Cl)cccc4Cl)c(=O)n(C)c3n2)cc1 [Example 64, 6-(2,6-Dichlorophenyl)-2-(4-methoxyphenylamino)-8-methyl-8H-pyrido[2,3-d]pyrimidin-7-one] | IC50 [1]: 65 nM
– | 52 nM | – | – | – | COc1cccc(Nc2ncc3cc(-c4c(Cl)cccc4Cl)c(=O)n(C)c3n2)c1 [Example 72, 6-(2,6-Dichlorophenyl)-2-(3-methoxyphenylamino)-8-methyl-8H-pyrido[2,3-d]pyrimidin-7-one] | IC50 [1]: 33 nM
– | 44 nM | – | – | – | Cn1c(=O)c(-c2c(Cl)cccc2Cl)cc2cnc(Nc3cccnc3)nc21 [Example 79, 6-(2,6-Dichlorophenyl)-8-methyl-2-(pyridin-3-ylamino)-8H-pyrido[2,3-d]pyrimidin-7-one] | IC50 [1]: 110 nM; IC50 [2]: 172 nM
– | – | – | 350 nM | – | Cn1c(=O)c(-c2c(Cl)cccc2Cl)cc2cnc(Nc3cccc(O)c3)nc21 [Example 87, 6-(2,6-Dichlorophenyl)-2-(3-hydroxyphenylamino)-8-methyl-8H-pyrido[2,3-d]pyrimidin-7-one] | IC50 [1]: 140 nM
– | 95 nM | 69000 nM | 38000 nM | – | CCOC(=O)c1ccc(Nc2ncc3cc(-c4c(Cl)cccc4Cl)c(=O)n(C)c3n2)cc1 [Example 88, 4-[6-(2,6-Dichlorophenyl)-8-methyl-7-oxo-7,8-dihydro-pyrido[2,3-d]pyrimidin-2-ylamino]-benzoic acid, ethyl ester] | –
– | 14 nM | 1490 nM | 1480 nM | – | CCOC(=O)c1cccc(Nc2ncc3cc(-c4c(Cl)cccc4Cl)c(=O)n(C)c3n2)c1 [Example 89, 3-[6-(2,6-Dichlorophenyl)-8-methyl-7-oxo-7,8-dihydro-pyrido[2,3-d]pyrimidin-2-ylamino]-benzoic acid, ethyl ester] | –
– | – | 9240 nM | – | 52% | Nc1ncc2cc(-c3c(Cl)cccc3Cl)c(=O)n(CC(=O)O)c2n1 [Example 107, [2-Amino-6-(2,6-dichlorophenyl)-7-oxo-7H-pyrido[2,3-d]-pyrimidin-8-yl]-acetic acid] | inhibition at 50 µM [3]: 43%
– | – | – | – | 0% | CCn1c(=O)c(-c2cc(C)cc(C)c2)cc2cnc(Nc3ccccc3)nc21 [Example 118, 6-(3,5-Dimethylphenyl)-8-ethyl-2-phenylamino-8H-pyrido[2,3-d]pyrimidin-7-one] | inhibition at 50 µM [2]: 29%; inhibition at 50 µM [3]: 12%
– | – | – | 1830 nM | 29% | CCn1c(=O)c(-c2ccncc2)cc2cnc(Nc3ccccc3)nc21 [Example 120, 8-Ethyl-2-phenylamino-6-pyridin-4-yl-8H-pyrido[2,3-d]-pyriminin-7-one] | inhibition at 50 µM [2]: 2%
– | – | – | – | 11% | CCn1c(=O)c(-c2ccc(-c3ccccc3)cc2)cc2cnc(Nc3ccccc3)nc21 [Example 124, 6-Biphenyl-4-yl-8-ethyl-2-phenylamino-8H-pyrido[2,3-d]-pyrimidin-7-one] | inhibition at 50 µM [2]: 15%; inhibition at 50 µM [3]: 38%

Compound | inhibition at 50 µM [1] | IC50 (C-src kinase) | IC50 ([2]; read-out: FGFr-TK IC50) | IC50 [3] | inhibition at 50 µM (C-src kinase) | further results
CN1CCN(CCCCCNc2ncc3cc(-c4c(Cl)cccc4Cl)c(=O)n(C)c3n2)CC1 [Example 81, 6-(2,6-Dichlorophenyl)-8-methyl-2-[5-(4-methylpiperazin-1-yl)-pentylamino]-8H-pyrido[2,3-d]pyrimdin-7-one] | – | – | – | 743 nM | 94% | IC50 [1]: 4500 nM
Nc1ncc2cc(-c3c(Cl)cccc3Cl)c(=O)n(Cc3ccncc3)c2n1 [Example 113, 2-Amino-6-(2,6-dichlorophenyl)-8-pyridin-4-ylmethyl-8H-pyrido[2,3-d]pyrimidin-7-one] | – | – | – | 1760 nM | 87% | IC50 [1]: 6700 nM
